The experiment deals with CEM cells HIV-1 protection, formazan growth assay. The experiment in a line: NCI AIDS Antiviral Assay. Conditions: for pIC50: measured here: growth of uninfected CEM cells. In outline: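 Protection of CEM cells against HIV-1 measured as cell growth via soluble formazan read-out, with five concentrations tested on both infected and uninfected cells; failure to protect may reflect toxicity.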

Structures are written as SMILES. pEC50, pIC50: −log10 of the molar value. Values joined by “and” are separate entries in the source; they are usually repeats but may differ in a detail not shown here. Identical values can stand only once. Active and inactive are the calls of the source.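 Rule for the calls: active = compounds giving half or more protection of infected cells from virus-caused growth loss, again on retest; inactive = the rest.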 Where a SMILES comes first, the peptide text is derived from it. The star is where a group is joined. Myristoyl = CCCCCCCCCCCCCC(=O)*; Boc = CC(C)(C)OC(=O)* Bounds are passed on as bounds.

From PubChem BioAssay AID179 (DTP/NCI, 2004) come the findings set out here.

As a reminder, the pEC50 is the EC50 on a negative log10 scale, so that one unit is a factor of ten. In general, pIC50 refers to the negative decadic logarithm of the IC50, by convention in mol/L. Lower therefore signals a large IC50.

Consider `CCCOc1cnc([C@H]2CCC3[C@@H]4CC=C5C[C@@H](OC(=O)CCC(=O)O)CC[C@]5(C)C4CC[C@@]32C)s1` (stereo not given in full), for which the pEC50 was less than 4.32 and the pIC50 was 4.72. The matching figures for `Cn1c2ccccc2c(=O)c2c(O)cc3c(c21)C1OCC(C)(O)C1O3` (stereo not given): less than 3.70 and 4.47. The matching figures for `Nc1nn2cc3c(nc2c1N=Nc1ccccc1)CCC3`: less than 3.70 and less than 3.70. Turning to `CCc1c(C)c2cc(N)ccc2[nH]c1=O`, the pEC50 is less than 3.70 and the pIC50 was 4.53.

For `CN1CCN(C(=O)/N=N\C(=O)N2CCN(C)CC2)CC1`, the pEC50 was less than 3.70 and the pIC50 was less than 3.70. For the molecule `O=C1OC(=O)C2C1C(c1ccccc1[N+](=O)[O-])C=C(c1ccco1)N2c1ccncc1` (stereo not given), the pEC50 is less than 4.70 and the pIC50 was 5.60. For `Cc1cc2c(c3oc(=O)cc(C)c13)[C@@H](OC(=O)C13CCC(C)(C(=O)O1)C3(C)C)[C@@H](OC(=O)C13CCC(C)(C(=O)O1)C3(C)C)C(C)(C)O2` (stereo not given in full), in that order: 6.04 and less than 3.70. The matching figures for `CSCCC(NOC(=O)Cc1ccccc1)P(=O)(O)c1ccccc1` (stereo not given): 3.71 and 3.62. For `NC(=O)C12C3C4C1C1C2C3C41C(N)=O` (stereo not given), in that order: less than 4.15 and less than 4.15. As for `Oc1[nH]c2ccccc2c1N=Nc1nc(-c2ccc(Cl)c(Cl)c2)cs1`, the pEC50 was less than 3.70 and the pIC50 was 4.39. `CCOc1cc2c(=O)oc3c(OC)ccc4ccc(c1OC)c2c43`: the outcome was inactive. As to `CCCCCCCCCCCCCC(=O)NCC(=O)NC(CO)C(=O)NC(CO)C(=O)NC(CCCCN)C(=O)NC(CO)C(=O)NC(CCCCN)C(=O)N1CCCC1C(=O)NC(CCCCN)C(=O)NC(CC(=O)O)C(N)=O` (stereo not given) (Myristoyl-GSSKSKPKD-NH2; configuration not given here), the pEC50 was less than 3.66 and the pIC50 was less than 3.66. Take `CCN=c1cc2oc3cc(NCC)c(C)cc3c(-c3ccccc3C(=O)OCC)c-2cc1C`: the pEC50 was less than 3.70; the pIC50 is 7.20 and 6.92. As to `CC(C)=CCC[C@@H](C)c1c(O)c(O)c(C)c2nccnc12`, the pEC50 was less than 3.70 and the pIC50 is 4.42. Turning to `O=C1NC2(CCCCC2)C(OCCO)C12CCCCC2` (stereo not given), the pEC50 was less than 3.50 and the pIC50 was less than 3.50. Turning to `CC(O)CN1c2ccccc2Sc2ccccc21` (stereo not given), the pEC50 is less than 3.70 and the pIC50 is less than 3.70. Regarding `CCc1cccc(C)c1NC(=O)CCc1nc(=S)[nH][nH]1`, the pEC50 was less than 3.21 and the pIC50 is less than 3.21. Regarding `Cc1cc(=O)oc2cc(OCC(O)COC(C)C)ccc12` (stereo not given), the pEC50 was less than 3.70 and the pIC50 was 3.89. For `CO[C@@]12[C@@H]3N[C@@H]3CN1C1=C(C(=O)C(N(C)c3ccc(O)cc3)=C(C)C1=O)[C@@H]2COC(N)=O`, in that order: less than 3.70 and 5.87. The matching figures for `Cn1c(=N)n(CC(=O)NC23CC4CC(CC(C4)C2)C3)c2ccccc21`: less than 3.46 and 4.18. For `CCOC(=O)NC(Nc1ccc(S(=O)(=O)Nc2nc(C)cc(C)n2)cc1)(C(=O)OCC)C(F)(F)F` (stereo not given), in that order: less than 3.70 and less than 3.70. Regarding `COC(=O)c1c2c(cc3c1CC1(C3)Cc3cc4c(c(C(=O)OC)c3C1)CCC4)CCC2`, the pEC50 was less than 3.70 and the pIC50 is less than 3.70. As to `O=C(O)c1ccccc1/C=C1\Cc2cc3c(cc2C1=O)CCC3`, the pEC50 was less than 3.70 and the pIC50 was less than 3.70. Regarding `COc1cccc(/C=N/[N-]C(N)=O)c1[O-].[Ni+2].[OH3+].c1cnc2c(c1)ccc1cccnc12`, the result was inactive. Turning to `COc1ccc(C2C(C#N)=C(N)C(C#N)=C3Oc4ccccc4N32)cc1` (stereo not given), the pEC50 was less than 3.70 and the pIC50 is less than 3.70. Take `Nc1c2ccccc2nc2ccc3c(=O)cc(-c4ccccc4)oc3c12`: the pEC50 was less than 4.70 and the pIC50 was 6.04.

As for `CCC(C(=O)c1ccccc1)C(CCCC(=O)Nc1c(C)cccc1C)N=O` (stereo not given), the pEC50 was less than 3.18 and the pIC50 was 3.45. The matching figures for `C=CS(=O)(=O)CCN1CC1`: less than 3.70 and less than 3.70. For `Cn1c(=O)ccc2cc(C(=O)c3ccccc3)ccc21`, in that order: less than 3.72 and 4.40. Regarding `CCOC(=O)Nn1c(C)nnc1CC#N`, the pEC50 was less than 3.70 and the pIC50 was less than 3.70. As for `CN(C)c1ccc(-c2nnc3c(c(=O)n(C)c(=O)n3C)[n+]2[O-])cc1`, the pEC50 was less than 3.70 and the pIC50 is 4.72. The matching figures for `CC(=O)Nc1ccc(/C=C2\SC(=S)N(C=C(C#N)C#N)C2=O)cc1`: less than 3.70 and 4.31. For the molecule `C/C1=C/COC(=O)CC/C(C)=C/CC1`, the outcome was inactive. For `CSC(=S)Nc1cc(C)cc(C)n1`, the pEC50 was less than 3.70 and the pIC50 is less than 3.70. Regarding `Cc1ccc(NC(=O)c2cc(S(=O)(=O)Nc3nc4ncccc4[nH]3)c(SSc3cc(Cl)c(C(=O)Nc4ccc(C)cc4)cc3S(=O)(=O)Nc3nc4ncccc4[nH]3)cc2Cl)cc1`, the pEC50 was less than 3.70 and the pIC50 is less than 3.70. Take `N#C/C(C(=O)Nc1ccc(Cl)cc1)=C(/N)N1CCCC1`: the pEC50 is less than 3.70 and the pIC50 was less than 3.70. Take `COC(=O)C(Cc1c[nH]c2ccccc12)NP(=O)(O)OCC1OC(n2cc(I)c(=O)[nH]c2=O)CC1O` (stereo not given): the pEC50 is less than 3.70 and the pIC50 is less than 3.70. Consider `CCOC(=O)N1N=NC2C3OC(C[C@@]3(C#N)OC(C)=O)[C@H]21` (stereo not given in full), for which the result was inactive. Take `C=CCOc1ccccc1N=N/C(C#N)=N\Nc1ccccc1OCC=C`: the pEC50 was less than 3.70 and the pIC50 was 3.96. With `COc1ccc2c(C(=O)O)cc3cc(OC)c(OC)cc3c2c1`, the outcome was inactive. For `c1ccc2c(c1)c1c(n2CCOCCN2CCCCC2)CCCC1`, the pEC50 was less than 3.70 and the pIC50 was 5.08. For `COc1c[c]([Hg][O]C(C)=O)c(OC)c(NC(=O)CC(C)=O)[c]1[Hg][O]C(C)=O`, in that order: less than 6.14 and less than 6.14. For `CCOC(=O)/C(=C\c1cccc(Br)c1)C(C)=O`, in that order: less than 3.64 and 4.32. As for `Cc1cc(C)nc(NS(=O)(=O)c2ccc(Nc3c4ccc(Cl)cc4nc4ncccc34)cc2)n1`, the outcome was inactive.

As to `CCN(CCNc1ccc(C)c2sc3ccccc3c(=O)c12)CC(C)(C)O`, the pEC50 is less than 3.70 and the pIC50 is 5.10.

Regarding `Cc1ccc(S(=O)(=O)N/N=C2\CCC3(O)CC2(C)CCC2C3CC2(C)C)cc1` (stereo not given), the pEC50 is 4.55 and the pIC50 is 4.29.

With `COc1cc(CO)c(CC(=O)NCCCc2ccccc2)cc1OC`, the pEC50 was less than 3.70 and the pIC50 is 4.74. For `Cc1nc2ccccc2c(=O)n1NC(=O)c1ccccn1`, in that order: less than 3.70 and less than 3.70. The matching figures for `N#CC1CCCC2SC(F)(F)C(F)(F)C12` (stereo not given): less than 3.70 and 4.48.

In the case of `O=c1[nH]c2ncccc2c(=O)n1OS(=O)(=O)c1ccccc1`, the pEC50 was less than 3.70 and the pIC50 is 3.87. The matching figures for `CC(NC(=O)C1CCCN1C(=O)CNC(=O)OC(C)(C)C)C(=O)O` (stereo not drawn) (Boc-Gly-Pro-Ala-OH; configuration not given here): less than 3.70 and less than 3.70. For `O=C(Nc1cccc(C(F)(F)F)c1)C(=O)C1NC(=S)NC1=O` (stereo not given), in that order: less than 3.72 and less than 3.72. For `Brc1ccc(C[N+]23CCN(CC2)CC3)cc1`, in that order: less than 3.16 and less than 3.16.

In the case of `CC1CCCN(CC(O)CN2CCN(CC(O)CN3CCCC(C)C3)C(C)C2)C1` (stereo not given), the pEC50 is less than 3.50 and the pIC50 is less than 3.50. For `CCOC(=O)c1c2ccccc2n2c(=O)n(C)nnc12`, the pEC50 is less than 3.70 and the pIC50 was less than 3.70. For the molecule `O/C(=C\c1nc2ccccc2nc1/C=C(\O)c1ccc(Cl)cc1)c1ccccc1`, the pEC50 was less than 3.70 and the pIC50 is 5.19. For `O=C(Nc1ccc(Cl)cc1)Nc1ccc(Cl)c(C(F)(F)F)c1`, in that order: less than 3.70 and 5.57.

`FC(F)(F)c1ccccc1C1SCc2nc3ccccc3n21` (stereo not given): the result was inactive. As to `CN(C)CCCNc1ccc2c(=O)n(CCN(C)C)c(=O)n3c4ccccc4c(=O)c1c23`, the pEC50 was less than 6.70 and the pIC50 is 7.11. For `Cc1cn(C2CC(O)C(CO)(C(F)(F)F)O2)c(=O)[nH]c1=O` (stereo not given), in that order: less than 3.70 and less than 3.70. Take `CC(C)OC(=O)C1Cc2c([nH]c3ccccc23)C(c2ccccc2)N1` (stereo not given): the outcome was inactive.

Regarding `COc1ccc2c[n+](C)c3c4cc(OC)c(OC)cc4ccc3c2c1`, the outcome was inactive. The same measure, in the same setting: the result for `COC1OC2=CCC3C(=O)N(c4ccccc4)C(=O)C3C2[C@H](OCc2ccccc2)C1OCc1ccccc1` (stereo not given in full) reads “inactive”. For the molecule `Cc1cn(C2CC3C(COC(C)N3O)O2)c(=O)[nH]c1=O` (stereo not given), the pEC50 is less than 3.70 and the pIC50 was less than 3.70.

In the case of `CC(C)(C)[Si](C)(C)OCC1OC(n2cnc3c(=O)[nH]c(NCc4ccccc4)nc32)C(O[Si](C)(C)C(C)(C)C)C1O[Si](C)(C)C(C)(C)C` (stereo not given), the pEC50 is less than 3.70 and the pIC50 is 3.85.

`CN(C)c1ccc(N=C2C=CC(=O)c3ccccc32)cc1`: the pEC50 was less than 4.70 and the pIC50 is 5.91.

For the molecule `CCOC(=O)/C(=C\c1cccs1)P(=O)(OCC)OCC`, the pEC50 was less than 3.10 and the pIC50 was 4.38.

Regarding `O=C(O)c1ccccc1CC1Cc2ccccc2C1=O` (stereo not given), the pEC50 is less than 3.70 and the pIC50 was less than 3.70. Take `CC(=O)NC(CCCCNC(=O)N(CCCl)N=O)C(=O)NCc1ccccc1` (stereo not given): the pEC50 was less than 3.22 and the pIC50 was 3.88. The matching figures for `CCOP(=O)(OCC)/C(=C/c1cccs1)CC(C)=O`: less than 3.70 and less than 3.70.
